Experimental data: patent US4775662A, “Leukotriene antagonists” (SmithKline Beckman Corporation, priority 1987, dated 1988)
Counter-ions that a name gives are not always drawn.

Tests used:
[1] = test system: leukotriene (LTD4) induced bronchoconstriction in guinea pigs; experiment: In vivo inhibition of LTD4-induced bronchoconstriction in anesthetized, spontaneously breathing guinea pigs (airway resistance, RL); set-up: species or system guinea pig (adult male albino Hartley strain); conditions: Cavia porcellus, intravenous, LTD4 challenge, guinea pig, read-out: RL (average % inhibition of change in airway resistance)
Protocol: (§1) The leukotriene antagonist activity of the compounds of this invention is measured by the ability of the compound to inhibit leukotriene induced contraction of guinea pig tracheal tissues in vitro and to inhibit leukotriene induced bronchoconstriction in guinea pigs in vivo. The following methodologies were employed:
(§2) Calculations: The averages of the triplicate LTD4 concentration-response curves both in the presence and absence of the test compound were plotted on log graph paper. The concentration of LTD4 needed to elicit 30% of the contraction elicited by carbachol was measured and defined as the EC30. The pA2 value for the test compound was determined by the following equations: [formula] In vivo: Anesthetized, spontaneously breathing guinea pigs (Adult male albino Hartley strain) were monitored on a Buxco pulmonary mechanics computer. Changes in airway resistance (RL) were calculated by the computer on a breath-by-breath basis at isovolumic points from signals measuring airflow and transpulmonary pressure using differential pressure transducers. Animals received either test compound or vehicle control intravenously via the jugular vein. LTD4 was then injected into the jugular vein. The bronchoconstriction produced was reflected by % changes in airways resistance relative to the baseline values obtained prior to injection of the test compound or vehicle control. Each guinea pig received either vehicle control or test compound.
Calculations: The average of 3-6 animals per treatment was calculated using the % changes in the pulmonary parameters for control and test compound-treated animals. The average % inhibition by the test compound was calculated from the following equation: [formula]

[2] = biological target: T1, leukotriene D4 (LTD4) induced contraction of guinea pig tracheal tissues (Cavia porcellus, UniProt Q2NNR5); experiment: In vitro inhibition of LTD4-induced contraction of guinea pig tracheal spiral strips (pA2); type: cell-based, guinea pig (adult male albino Hartley strain); conditions: for Kb: In vitro, LTD4, guinea pig trachea, EC30 relative to carbachol, 30 min pretreatment
T1 construct: Guinea pig (adult male albino Hartley strain) tracheal spiral strips; from tissue; host or cells: guinea pig trachea (spiral strips, adult male albino Hartley strain)
T1 sequence (Q2NNR5 1-340): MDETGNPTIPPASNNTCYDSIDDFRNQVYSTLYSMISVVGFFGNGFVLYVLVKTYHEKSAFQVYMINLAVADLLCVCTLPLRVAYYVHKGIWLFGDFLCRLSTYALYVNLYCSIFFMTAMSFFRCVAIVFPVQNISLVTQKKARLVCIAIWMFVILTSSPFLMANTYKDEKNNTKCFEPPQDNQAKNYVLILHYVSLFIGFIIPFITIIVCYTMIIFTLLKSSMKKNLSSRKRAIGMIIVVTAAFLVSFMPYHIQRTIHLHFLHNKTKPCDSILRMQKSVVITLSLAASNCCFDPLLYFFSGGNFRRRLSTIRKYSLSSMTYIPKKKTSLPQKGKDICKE
Protocol: as §1
In vitro: Guinea pig (adult male albino Hartley strain) tracheal spiral strips of approximate dimensions 2 to 3 mm cross-sectional width and 3.5 cm length were bathed in modified Krebs buffer in jacketed 10 ml tissue bath and continously aerated with 95% O2 /5% CO2. The tissues were connected via silk suture to force displacement transducers for recording isometric tension. The tissues were equilibrated for 1 hr., pretreated for 15 minutes with meclofenamic acid (1 μM) to remove intrinsic prostaglandin responses, and then pretreated for an additional 30 minutes with either the test compound or vehicle control. A cumulative concentration-response curve for LTD4 on triplicate tissues was generated by successive increases in the bath concentration of the LTD4. In order to minimize intertissue variability, the contractions elicited by LTD4 were standardized as a percentage of the maximum response obtained to a reference agonist, carbachol (10 μM).
as §2

Row | Kb [2] | partial agonist (footnote to pA2) ([2]; footnote (c) to pA2 5.0) | Structure (SMILES) | inhibition in vivo at 10 mg/kg [1] | inhibition in vivo at 5 mg/kg [1]
1 | – | – | CCCCCCCCCCCC/C=C\C(SCCC(=O)O)C(O)CC(=O)O (centres unmarked) [Example 10, 3-hydroxy-4-[(2-carboxyethyl)thio]-5(Z)-octadecenoic acid] | 88% | –
2 | 5.01 µM | – | CCCCCCCCCC/C=C\[C@H](SCCC(=O)O)[C@H](O)CCC(=O)O (relative stereo) [Example 14, 4-hydroxy-5-[(2-carboxyethyl)thio]-6(Z)-heptadecenoic acid] | – | –
3 | 0.251 µM | – | CCCCCCCCCCCC/C=C\C(CCC(=O)O)SCCC(=O)O (centres unmarked) [Example 16, 4-[(2-carboxyethyl)thio]-5(Z)-octadecenoic acid] | – | –
4 | 3.16 µM | – | CCCCCCCCCCCC/C=C\[C@H](SCC(N)C(=O)NCC(N)=O)[C@H](O)CCC(=O)O (some centres unmarked) [Example 9] | – | 98%
5 | 7.94 µM | – | CCCCCCCCCCCC/C=C\[C@@H](SCC(N)C(=O)O)[C@@H](O)CCC(=O)O (stereo partly drawn) [Example 8(d), 4(S)-Hydroxy-5(R)-[(2-amino-2-carboxyethyl)thio]-6(Z)-nonadecenoic acid, sodium salt] | – | –
6 | 12.6 µM | – | CCCCCCCCCCCC/C=C\C(SCC(N)C(=O)NCC(=O)O)C(O)CCC(N)=O (centres unmarked) [Example 13] | – | –
7 | 3.16 µM | – | CCCCCCCCCCCC/C=C\C(CCCC(=O)O)SCCC(=O)O (centres unmarked) [Example 11, 5-[(2-carboxyethyl)thio]-6(Z)-non-adecenoic acid] | 98% | –
8 | 7.94 µM | – | CCCCCCCCCCCC/C=C\[C@H](SCCC(N)=O)[C@H](O)CCC(=O)O (relative stereo) [Example 7, 5-[[2-(aminocarbonyl)ethyl]thio]-4-hydroxy-6(Z)-nonadecenoicacid] | – | 38%
9 | 1.26 µM | – | CCCCCCCCCCCC/C=C\[C@H](SCC(=O)O)[C@H](O)CCC(=O)O (relative stereo) [Example 5, 5-[(carboxymethyl)thio]-4-hydroxy-6(Z)-nonadecenoic acid] | – | –
10 | 6.31 µM | – | CCCCCCCCCCCC/C=C\[C@H](SCC(N)C(=O)NCC(=O)O)[C@H](O)CCC(=O)O (single isomer, unassigned; isomer 4) [Example 1(i) 4(R),5(S) isomer, hydrate] | – | 96%
11 | 0.631 µM | – | CCCCCCCCCCCC/C=C\[C@H](SCCCC(=O)O)[C@H](O)CCC(=O)O (relative stereo) [Example 6, 5-[(3-carboxypropyl)thio]-4-hydroxy-6(Z)-nonadecenoic acid] | – | 88%
12 | – | – | CCCCCCCCCCCC/C=C\[C@H](SCCC(=O)N(C)CC(=O)O)[C@H](O)CCC(=O)O (relative stereo) [Example 4, 5-[(3-carboxymethyl-N-methylamino-3-oxopropyl)thio]-4-hydroxy-6(Z)-nonadecenoic acid] | – | 90%
13 | 0.631 µM | – | CCCCCCCCCCCC/C=C\[C@H](SCCC(=O)NCC(=O)O)[C@H](O)CCC(=O)O (relative stereo) [Example 3, 5-[(3-carboxymethylamino-3-oxopropyl)thio]-4-hydroxy-6(Z)-nonadecenoic acid] | – | 36%
14 | 0.631 µM | – | CCCCCCCCCCCC/C=C\[C@H](SCCC(=O)O)[C@H](O)CCC(=O)O (relative stereo) [Example 2, 4-hydroxy-5-[(2-carboxyethyl)thio]-6(Z)-nonadecenoic acid] | – | 91%
15 | 7.94 µM | – | CCCCCCCCCCCC/C=C\[C@H](SCC(N)C(=O)O)[C@H](O)CCC(=O)O (stereo partly drawn) [Example 8(c), 4(R)-Hydroxy-5(S)-[(2-amino-2-carboxyethyl)thio]-6(Z)-nonadecenoic acid, sodium salt] | – | –
16 | 10 µM | partial agonist | CCCCCCCCCCCC/C=C\[C@@H](SCC(N)C(=O)NCC(=O)O)[C@@H](O)CCC(=O)O (single isomer, unassigned; isomer 5) [Example 1(i) 4(S),5(R) isomer, 5-[(2-amino-3-carboxymethylamino-3-oxopropyl)thio]-4-hydroxy-6(Z)-nonadecenoic acid] | – | –
17 | 3.98 µM | – | CCCCCCCCCCCC/C=C\[C@H](SCCC(=O)O)[C@H](O)CCC(N)=O (relative stereo) [Example 12, 5-[(2-carboxyethyl)thio]-4-hydroxy-6(Z)-nonadecenamide] | – | –
18 | 7.94 µM | – | CCCCCCCCCCCCCC/C=C\[C@H](SCCC(=O)O)[C@H](O)CCC(=O)O (relative stereo) [Example 15, 4-hydroxy-5-[(2-carboxyethyl)thio]-6(Z)-heneicosenoic acid] | – | –
